Tested on: green peach aphid (Myzus persicae)
Assay: Myzus persicae test (cabbage leaf dip)
Assay type: in vivo
Details: cabbage leaves (Brassica oleracea) dipped
Text: The expected action for a given combination of two active compounds can be calculated according to S. R. Colby, Weed, 15 (1967), 20-22): […]
If • X is the kill rate, expressed as a percentage of the untreated control, when employing active compound A at an application rate of m g/ha or in a concentration of m ppm, • Y is the kill rate, expressed as a percentage of the untreated control, when employing active compound B at an application rate of n g/ha or in a concentration of n ppm and • E is the kill rate, expressed as a percentage of the untreated control, when employing active compounds A and B at application rates of m and n g/ha or in a concentration of m and n ppm, then
If the actual insecticidal kill rate exceeds the calculated value, the action of the combination is superadditive, i.e. a synergistic effect is present. In this case, the actually observed kill rate must exceed the value calculated using the above formula for the expected kill rate (E).
After the desired period of time, the kill in % is determined. 100% means that all animals have been killed; 0% means that none of the animals have been killed. […]
After the desired period of time, the kill in % is determined. […] The determined kill ratios are entered into Colby's formula (see page 42).

Row | Structure (SMILES) | Kill rate in % after 1d, found (0.8 ppm active compound) [%] | Kill rate in % after 1d, found (4 ppm active compound) [%]
1 | CCOP(=S)(OCC)Oc1nc(Cl)c(Cl)cc1Cl [(2-2) chlorpyrifos, chlorpyrifos] | 65 | –
2 | Cc1cc(Cl)cc(C(=O)NC(C)C)c1NC(=O)c1cc(C(F)(F)F)nn1-c1ncccc1Cl [(I-1-9)] | – | 0

— patent US8865683B2, “Active compound combinations having insecticidal properties” (priority 2003, dated 2014)
